Laboratory results taken from patent US12441732B2, “Potassium salt crystal form B of phosphodiesterase type 5 inhibitor, and preparation method and use therefor” (Guangzhou Huazhen Pharmaceutical Co., Ltd, priority 2019, dated 2025).

Experiments:
PAH rats = assay: Penile erectile function observation in PAH rats; format: in vivo, SD rats
Protocol: After gavage treatment, penile erection in the animals was observed, wherein the time of penile erection phenomenon after gavage was recorded in each group.

UIRI model mice = assay: Unilateral renal ischemia-reperfusion mouse model (UIRI model) of renal fibrosis; format: in vivo, BALB/c mice; settings: 5 mg·kg^−1·d^−1 gavage, 10 days
Source text: Fifteen male BALB/c mice were randomly divided into: a Sham group (a sham-operation group) including 5 mice, and a surgical modeling group including 10 mice. Surgical method: mice were anesthetized and incised on the left side of the abdomen to expose the kidney, and the renal pedicle was bluntly dissected. In the sham-operation group, the renal pedicle was only exposed without clamping; in the modeling group, the left kidney renal pedicle was clamped with a non-invasive miniature arterial clamp for 30 min, and the mice were placed on a thermostat plate at 37° C. to maintain a constant body temperature during the clamping period, and the surgical incision was covered with saline-impregnated gauze to prevent dehydration of the renal tissue. The arterial clamp was removed after 30 min, and it was observed that the kidney changed gradually from purple-black to bright red within 1 min, indicating successful blood reperfusion. The kidney was returned to its original position and the wound was sutured. The mice in the modeling group were randomly divided into 2 groups: a UIRI group (a model group) and a treatment group of the potassium salt crystal form B of WYQ (5 mg/kg), 5 mice in each group.
The first gavage administration was started 2 hours after the operation.
(2) treatment group of the potassium salt crystal form B of WYQ: the potassium salt crystal form B of WYQ was diluted into a 1 mg/ml solution with normal saline and administered by gavage at the dose of 5 mg·kg^−1·d^−1; and
administered once a day for consecutive 10 days.
On the 10th after operation, mice were anesthetized in the same way, the right dorsum was incised to expose the right kidney, and the renal pedicle was ligated before removing the right kidney. The mice in the sham-operation group were only stripped of the perirenal membrane without removing the right kidney. On the 11th after operation, all the mice were sacrificed, the abdominal cavity was opened, and the left kidney tissues of the mice were peeled off, caring to maintain the integrity of the kidney. After the kidney is taken out, the kidney is quickly transferred to pre-chilled PBS, and the kidney is cut for different tests. The kidney is divided into four parts with a scalpel, wherein the upper and lower ventral poles of the kidney were put into liquid nitrogen for extraction of protein and mRNA, and detection of changes in the expression amount of fibrosis-related factors proteins and genes. After 2 hours, the kidney tissue was transferred and stored in the refrigerator at −80° C. The dorsal side of the kidney was fixed in 4% paraformaldehyde for making paraffin sections. The morphological changes of the kidney tissue were observed by HE staining and Masson staining, and the changes of the expression of fibrosis marker proteins in the kidney tissues were observed by immunohistochemistry.

IPF rats = assay: Bleomycin-induced idiopathic pulmonary fibrosis (IPF) rats; format: in vivo, SD rats; settings: 23 days; for Fibrosis area / Fibrosis score (Ashcroft) / Percentage of score (%) (≤3) / Percentage of score (%) (≥4): left lung
Protocol: The animals were purchased, and modeling was started after 3-7 days of acclimatization. The animals were weighed and anesthetized by inhalation with isoflurane. After the animals were confirmed to be anesthetized, the neck was disinfected, and the skin of the neck was cut. The main trachea was exposed by bluntly dissecting the muscle, a small incision was made between the tracheal rings, into which a PE-20 tube was inserted until the left main bronchus, and bleomycin was injected directly (dose: 3 mg/kg, volume: 1.0 ml/kg). The trachea and skin were sutured. After the surgery, the animals were kept warm at 37° C. under an electric blanket until the animals were fully awake and confirmed to be able to feed and drink freely before returning the animals to their normal feeding cages.
50 mg/kg Nintedanib group (BIBF-50 mg/kg): BIBF was prepared into a solution of 10 mg/ml with 0.5% sodium carboxymethyl cellulose and administered by gavage at a dose of 50 mg/kg^−1·d^−1;
Each group of rats was administered by gavage on the day of modeling, once a day for 23 days in total.
After 23 days of continuous administration, all animals in each group were euthanized by intraperitoneal injection of pentobarbital sodium anesthetic (100 mg/kg) in accordance with the KCl standard operating procedure for animal euthanasia. Whole-body perfusion was performed by low-temperature PBS, and then fixation was performed by whole-body formalin perfusion. The left lung was taken and perfused with an equal amount of formalin fluid for weighing and subsequent lung pathology-related tests.
Left lung gross pathological examination: after perfusion with an equal amount of formalin, the wet weight of the left lung after the perfusion was weighed and recorded with a microbalance; the volume of the left lung after perfusion was measured and recorded using a toe volume measuring instrument.
The whole lung of the left lung was dehydrated according to the KCl pathology standard SOPs, and paraffin blocks were prepared. The whole lung of the left lung was paraffin-sectioned at a thickness of 3-4 μm. HE staining and Masson Trichrome staining were performed according to the KCl pathology standard staining SOPs, and the slice panoramic scanning was carried out by a Hamamatsu NanoZoomer Digital Pathology (S210) slice scanner. The lung lesion area was calculated by Masson Trichrome staining of the sections, and the left lung fibrosis area (%) was the percentage of fibrosis area in the left lung area; 10 randomly selected fields of view of 1 mm^2 in the lesion area were semi-quantitatively scored by the pathologist under double-blind conditions according to the Ashcroft scoring system (as shown in Table 8 and FIG. 40).

[1] = Solid-state stability test (one week, open); format: physicochemical; settings: for HPLC purity: Purity after placement / Purity after placement/Starting purity / Crystal form change: open, one week; for Crystal form change: XRPD
Protocol: The solid-state stability of the potassium salt crystal form B prepared in Embodiment 1 was tested, in which 5.22 mg of potassium salt crystal form B samples were weighed and left open at 25° C./60% RH, and 5.19 mg of potassium salt crystal form B samples were weighed and left open at 40° C./75% RH. After one week, all samples were subjected to XRPD characterization (see XRPD parameter settings in Table 1) and HPLC purity test (Agilent 1100) to detect changes in crystal form and purity, wherein HPLC purity test parameters were shown in Table 6. Meanwhile, 4.59 mg of a compound WYQ sample was weighed and left open at 25° C./60% RH, and 5.11 mg of the compound WYQ sample was weighed and left open at 40° C./75% RH. The solid-state stability of these samples were performed under the same conditions for comparative reference.

[2] = 10 mg/kg, listed as CPD-1, 10 mg/kg
[3] = 10 mg/kg, listed as potassium salt crystal form B of WYQ
[4] = both test conditions (25° C./60% RH, 40° C./75% RH)

## CCCCOC(=O)[N-]S(=O)(=O)c1cccc(-c2nc3c(CCC)nn(C)c3c(=O)[nH]2)c1.[K+] [potassium salt crystal form B]
PAH rats; high-dose 20 mg·kg^−1d^−1, over 40 min after gavage
  rats showing penile erection: 80%
PAH rats; low-dose 5 mg·kg^−1d^−1, over 1 h after gavage
  rats showing penile erection: 50%
PAH rats; medium-dose 10 mg·kg^−1d^−1, over 1 h after gavage
  rats showing penile erection: 80%
PAH rats; mini-dose 2 mg·kg^−1d^−1, over 1 h after gavage
  rats showing penile erection: 30%
UIRI model mice
  Collagen I protein expression in kidney tissue (Western Blot) vs UIRI model: significantly reduced
  FN1 protein expression in kidney tissue (Western Blot) vs UIRI model: significantly reduced
  FN1 protein expression level in renal fibrotic lesions (immunohistochemistry): significantly reduced
  PAI-1 protein expression in kidney tissue (Western Blot) vs UIRI model: significantly reduced
  α-SMA protein expression in kidney tissue (Western Blot) vs UIRI model: significantly reduced
  α-SMA protein expression level in renal fibrotic lesions (immunohistochemistry): significantly reduced
UIRI model mice; HE/Masson staining
  extracellular matrix deposition in the kidneys: decreased
  inflammatory cell infiltration in the kidneys: significantly reduced
IPF rats; 2.5 mg/kg gavage once a day
  Left lung volume: 1779.9 ± 105.76 mm^3
  Left lung weight: 1.59 ± 0.10 g
IPF rats; 2.5 mg/kg
  alveolar tissue structure in left lung pulmonary fibrosis lesions (HE staining): some of the alveolar structures in the fibrotic lesions were damaged
  alveolar tissue structure in left lung pulmonary fibrosis lesions (Masson Trichrom staining): some of the alveolar structures in the fibrotic lesions were preserved
  Fibrosis area: 51.99 ± 3.21%
  Fibrosis score (Ashcroft): 3.21 ± 0.30
  Percentage of score (%) (≤3): 53.75 ± 9.81%
  Percentage of score (%) (≥4): 46.25 ± 9.81%
IPF rats; 10 mg/kg gavage once a day
  Left lung volume: 1604.5 ± 153.72 mm^3
  Left lung weight: 1.47 ± 0.16 g
IPF rats; 10 mg/kg
  alveolar tissue structure in left lung pulmonary fibrosis lesions (HE staining): the alveolar structures in the fibrotic lesions were preserved
  alveolar tissue structure in left lung pulmonary fibrosis lesions (Masson Trichrom staining): most of the alveolar structures in the fibrotic lesions were preserved
  Fibrosis area: 53.42 ± 4.44%
  Percentage of score (%) (≤3): 71.25 ± 10.08%
IPF rats; 10 mg/kg, HE staining
  smooth muscle proliferation and inflammatory cell infiltration in bronchioles and pulmonary arterioles of left lung fibrosis lesions vs model group: better effects
IPF rats; different doses, H&E and Masson Trichrom staining
  left lung pulmonary fibrosis lesions and lesion range vs the model group: no significant difference
IPF rats; [2]
  Fibrosis score (Ashcroft): 2.69 ± 0.31
  Percentage of score (%) (≥4): 28.75 ± 10.08%
IPF rats; [3]
  Fibrosis score (Ashcroft): significantly inhibit
  Percentage of score (%) (≥4): significantly reduced
[1]; 25° C./60% RH
  HPLC purity: Purity after placement: 98.62 area %
  Purity after placement/Starting purity: 99.9%
  Crystal form change: unchanged
[1]; 40° C./75% RH
  HPLC purity: Purity after placement: 98.51 area %
  Purity after placement/Starting purity: 99.8%
  Crystal form change: unchanged
[1]; [4]
  change in purity after one week of placement: no significant change
  change in the crystal form after one week of placement: no change
